Active and inactive are the calls of the source.

By EC50 is commonly meant the concentration needed to bring the measured effect to its halfway point. Read a low EC50 as higher potency in that assay. Usually CC50 stands for the concentration giving 50% cytotoxicity.

The target in assay [1] is T1, Mannose-6-phosphate isomerase (Homo sapiens, UniProt P34949).
T1 sequence (P34949 whole entry): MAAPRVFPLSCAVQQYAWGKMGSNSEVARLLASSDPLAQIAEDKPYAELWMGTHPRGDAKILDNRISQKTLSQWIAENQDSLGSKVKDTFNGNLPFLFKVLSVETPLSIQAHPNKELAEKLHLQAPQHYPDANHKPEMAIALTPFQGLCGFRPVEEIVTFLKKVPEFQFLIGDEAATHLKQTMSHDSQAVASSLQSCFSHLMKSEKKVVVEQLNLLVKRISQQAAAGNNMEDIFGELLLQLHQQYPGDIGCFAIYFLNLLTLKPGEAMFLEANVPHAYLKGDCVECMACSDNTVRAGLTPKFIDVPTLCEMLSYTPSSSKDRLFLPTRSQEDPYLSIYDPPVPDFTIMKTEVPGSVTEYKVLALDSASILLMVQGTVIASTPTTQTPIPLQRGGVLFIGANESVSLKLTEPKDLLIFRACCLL
Kind of assay: PMI enzyme inhibitors, confirmation, biochemical, fluorescence intensity (AID 1535).

A further assay deals with Phosphomannomutase 2 (Homo sapiens, UniProt O15305). Kind of assay: Counter screen SAR assay for PMM2 inhibitors via a fluorescence intensity assay. [Related pubchem assays (depositor defined):AID1545, AID1574]. (A counterscreen serves to expose hits that act by an unwanted route or on another target.)
Phosphomannomutase 2, sequence (O15305 whole entry): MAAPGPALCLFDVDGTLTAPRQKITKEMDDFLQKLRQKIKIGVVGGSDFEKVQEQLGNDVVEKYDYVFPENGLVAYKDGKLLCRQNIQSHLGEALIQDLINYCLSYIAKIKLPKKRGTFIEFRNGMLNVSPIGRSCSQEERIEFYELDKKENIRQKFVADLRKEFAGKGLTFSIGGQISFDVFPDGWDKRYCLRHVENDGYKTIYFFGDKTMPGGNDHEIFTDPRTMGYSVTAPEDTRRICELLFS
The target of assay [2] is T1, Mannose-6-phosphate isomerase. The assay is described as follows: inhibitors of human PMI, primary screen, biochemical, fluorescence intensity, coupled assay (AID 1209).
In assay [3] the target is Eukaryotic translation initiation factor 4H (Homo sapiens, UniProt Q15056). The assay is described as follows: eIF4H inhibition in translation initiation, SAR follow-up (AID 435011). The class given is functional.
The target of assay [4] is T2, Heat shock factor protein 1 (Mus musculus, UniProt P38532).
T2 sequence (P38532 whole entry): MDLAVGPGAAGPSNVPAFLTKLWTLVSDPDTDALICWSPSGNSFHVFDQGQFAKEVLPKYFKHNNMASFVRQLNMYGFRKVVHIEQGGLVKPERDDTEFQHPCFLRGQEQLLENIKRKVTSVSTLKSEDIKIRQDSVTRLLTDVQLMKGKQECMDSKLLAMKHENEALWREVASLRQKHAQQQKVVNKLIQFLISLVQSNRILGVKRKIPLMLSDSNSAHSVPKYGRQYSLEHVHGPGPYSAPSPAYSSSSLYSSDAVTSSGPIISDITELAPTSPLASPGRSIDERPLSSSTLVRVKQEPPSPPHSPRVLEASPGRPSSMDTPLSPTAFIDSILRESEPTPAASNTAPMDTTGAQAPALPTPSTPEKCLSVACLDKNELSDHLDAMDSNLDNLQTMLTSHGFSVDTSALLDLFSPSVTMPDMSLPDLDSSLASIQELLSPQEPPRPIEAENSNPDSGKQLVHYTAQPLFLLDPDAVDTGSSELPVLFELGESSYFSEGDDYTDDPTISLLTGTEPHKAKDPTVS
The assay is described as follows: inhibition of MG132-induced HSE-luciferase signal, confirmation, cell-based, NIH3T3, luminescence, dose retest (AID 2382).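 Also: NIH3T3 fibroblasts with HSF1-driven luciferase reporter stressed by proteasome inhibitor MG132; luminescence from HSF1-driven luciferase expression after 8 hours of MG132 stress.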 It counts as functional.

The target in assay [5] is Polyadenylate-binding protein 1 (Homo sapiens, UniProt P11940). Kind of assay: PABP inhibition in translation initiation, SAR follow-up (AID 435018). The class given is functional.
Polyadenylate-binding protein 1, sequence (P11940 whole entry): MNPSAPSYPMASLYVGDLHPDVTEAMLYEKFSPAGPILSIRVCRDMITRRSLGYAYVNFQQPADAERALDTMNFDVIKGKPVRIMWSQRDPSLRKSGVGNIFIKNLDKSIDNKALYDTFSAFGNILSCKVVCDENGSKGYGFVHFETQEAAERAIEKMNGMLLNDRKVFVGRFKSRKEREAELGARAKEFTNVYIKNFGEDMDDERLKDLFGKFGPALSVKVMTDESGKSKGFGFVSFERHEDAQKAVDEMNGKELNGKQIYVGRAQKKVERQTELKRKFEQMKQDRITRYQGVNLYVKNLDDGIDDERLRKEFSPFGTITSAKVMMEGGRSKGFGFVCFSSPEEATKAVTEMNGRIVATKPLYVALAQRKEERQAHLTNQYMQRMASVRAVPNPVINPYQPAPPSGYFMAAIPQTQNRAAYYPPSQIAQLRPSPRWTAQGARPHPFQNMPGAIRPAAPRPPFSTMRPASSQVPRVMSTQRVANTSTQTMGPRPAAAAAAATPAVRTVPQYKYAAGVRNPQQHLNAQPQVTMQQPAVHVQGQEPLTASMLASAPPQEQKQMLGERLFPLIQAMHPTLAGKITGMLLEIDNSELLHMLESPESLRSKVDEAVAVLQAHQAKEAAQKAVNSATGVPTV
Assay [6] has as its target T3, Tyrosine-protein phosphatase non-receptor type 22 (Homo sapiens, UniProt Q9Y2R2).
T3 sequence (Q9Y2R2 whole entry): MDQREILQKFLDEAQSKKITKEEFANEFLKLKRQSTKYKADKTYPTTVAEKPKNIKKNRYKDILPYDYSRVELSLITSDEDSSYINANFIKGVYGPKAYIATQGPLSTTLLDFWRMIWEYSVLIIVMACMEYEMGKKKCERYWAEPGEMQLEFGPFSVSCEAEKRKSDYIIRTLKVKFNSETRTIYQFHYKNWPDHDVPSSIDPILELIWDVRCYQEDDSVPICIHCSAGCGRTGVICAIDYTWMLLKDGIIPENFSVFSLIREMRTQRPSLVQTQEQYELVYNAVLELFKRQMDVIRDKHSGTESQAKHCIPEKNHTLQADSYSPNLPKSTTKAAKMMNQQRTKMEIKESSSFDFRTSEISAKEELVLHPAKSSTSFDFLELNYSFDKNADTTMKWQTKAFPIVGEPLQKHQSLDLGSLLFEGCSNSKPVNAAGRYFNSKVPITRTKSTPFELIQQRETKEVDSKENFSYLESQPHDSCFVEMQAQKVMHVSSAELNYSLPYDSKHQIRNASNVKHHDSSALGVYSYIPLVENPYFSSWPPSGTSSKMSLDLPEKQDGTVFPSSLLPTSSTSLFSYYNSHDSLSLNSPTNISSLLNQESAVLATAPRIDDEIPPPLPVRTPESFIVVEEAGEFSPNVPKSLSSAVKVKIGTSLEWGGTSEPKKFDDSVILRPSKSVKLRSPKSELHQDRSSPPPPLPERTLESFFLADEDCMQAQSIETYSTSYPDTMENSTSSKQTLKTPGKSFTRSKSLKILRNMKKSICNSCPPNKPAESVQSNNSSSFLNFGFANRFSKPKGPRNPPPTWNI
Kind of assay: PTPN22 phosphatase inhibition, dose response, selectivity assay for STEP inhibitor project, biochemical (AID 624241). The class given is functional.

Assay [7] has as its target T4, Dual specificity protein phosphatase 3 (Homo sapiens, UniProt P51452). The assay is described as follows: VHR1 phosphatase inhibitors, primary screen, biochemical, absorbance, uHTS (AID 1654).
In assay [8] the target is T5, Tyrosine-protein phosphatase non-receptor type 11 (Homo sapiens, UniProt Q06124).
T5 sequence (Q06124 whole entry): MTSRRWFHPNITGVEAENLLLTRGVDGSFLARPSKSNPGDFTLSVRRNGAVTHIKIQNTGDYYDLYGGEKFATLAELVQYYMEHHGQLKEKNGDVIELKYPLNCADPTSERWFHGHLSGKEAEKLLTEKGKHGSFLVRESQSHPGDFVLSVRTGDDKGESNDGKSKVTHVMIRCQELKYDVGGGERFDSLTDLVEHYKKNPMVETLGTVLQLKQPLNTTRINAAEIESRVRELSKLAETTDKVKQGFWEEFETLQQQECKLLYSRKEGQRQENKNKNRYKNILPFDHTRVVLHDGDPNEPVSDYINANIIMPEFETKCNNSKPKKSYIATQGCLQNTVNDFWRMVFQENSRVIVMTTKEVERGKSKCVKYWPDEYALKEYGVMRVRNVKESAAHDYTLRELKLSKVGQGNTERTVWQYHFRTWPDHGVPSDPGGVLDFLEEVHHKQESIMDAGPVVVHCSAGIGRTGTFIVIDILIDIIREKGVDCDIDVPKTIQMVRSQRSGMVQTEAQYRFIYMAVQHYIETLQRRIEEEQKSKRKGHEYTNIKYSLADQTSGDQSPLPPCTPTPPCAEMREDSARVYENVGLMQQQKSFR
Kind of assay: SHP2 phosphatase inhibition, dose response, selectivity assay for STEP inhibitor project, biochemical (AID 602367). It counts as functional. The settings on record: read-out: IC50_Mean.

For assay [9], the target named is Envelope glycoprotein gp160 (Human immunodeficiency virus 1, UniProt Q6QLK5). Kind of assay: inhibitors of HIV fusion peptide binding, primary screen, biochemical, uHTS, fluorescence dequenching (AID 1986).
Envelope glycoprotein gp160, sequence (Q6QLK5 whole entry, the tested form may be a part): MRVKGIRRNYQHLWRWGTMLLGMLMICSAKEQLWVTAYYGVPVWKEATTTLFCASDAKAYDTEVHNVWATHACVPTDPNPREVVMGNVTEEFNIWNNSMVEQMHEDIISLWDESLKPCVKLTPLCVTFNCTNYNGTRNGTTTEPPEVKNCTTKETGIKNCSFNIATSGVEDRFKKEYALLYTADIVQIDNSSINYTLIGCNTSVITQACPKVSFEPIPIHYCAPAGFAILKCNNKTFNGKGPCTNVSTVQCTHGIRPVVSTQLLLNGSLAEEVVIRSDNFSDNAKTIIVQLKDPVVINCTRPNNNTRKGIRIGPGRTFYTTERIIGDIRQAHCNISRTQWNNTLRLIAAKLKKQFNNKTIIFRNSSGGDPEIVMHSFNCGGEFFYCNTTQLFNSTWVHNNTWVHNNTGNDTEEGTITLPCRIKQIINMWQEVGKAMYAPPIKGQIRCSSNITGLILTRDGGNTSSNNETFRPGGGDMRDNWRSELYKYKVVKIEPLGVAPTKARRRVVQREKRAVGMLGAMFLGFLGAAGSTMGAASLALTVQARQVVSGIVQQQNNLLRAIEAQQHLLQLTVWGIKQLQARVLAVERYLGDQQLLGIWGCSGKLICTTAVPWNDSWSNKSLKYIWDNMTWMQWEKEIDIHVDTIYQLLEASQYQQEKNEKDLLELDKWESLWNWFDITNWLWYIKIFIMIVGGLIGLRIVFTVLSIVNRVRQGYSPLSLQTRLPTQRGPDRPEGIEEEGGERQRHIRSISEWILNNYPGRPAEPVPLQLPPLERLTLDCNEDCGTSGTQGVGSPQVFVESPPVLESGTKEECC
Assay [10] can be described thus: HEp-2 cell cytotoxicity, dose response, cytotoxicity control for RSV inhibitor project, HTS (AID 2410). It counts as functional. The conditions noted are these: human respiratory syncytial virus.
Assay [11] concerns the target T3, Tyrosine-protein phosphatase non-receptor type 22. Kind of assay: LYP phosphatase inhibition for selectivity, dose response, selectivity assay for LMPTP inhibitor project, biochemical, fluorescence, LYP catalytic domain (AID 652006). The class given is functional. The settings on record: read-out: IC50_Mean.
The target of assay [12] is T6, Dual specificity protein phosphatase 6 (Rattus norvegicus, UniProt Q64346).
T6 sequence (Q64346 whole entry): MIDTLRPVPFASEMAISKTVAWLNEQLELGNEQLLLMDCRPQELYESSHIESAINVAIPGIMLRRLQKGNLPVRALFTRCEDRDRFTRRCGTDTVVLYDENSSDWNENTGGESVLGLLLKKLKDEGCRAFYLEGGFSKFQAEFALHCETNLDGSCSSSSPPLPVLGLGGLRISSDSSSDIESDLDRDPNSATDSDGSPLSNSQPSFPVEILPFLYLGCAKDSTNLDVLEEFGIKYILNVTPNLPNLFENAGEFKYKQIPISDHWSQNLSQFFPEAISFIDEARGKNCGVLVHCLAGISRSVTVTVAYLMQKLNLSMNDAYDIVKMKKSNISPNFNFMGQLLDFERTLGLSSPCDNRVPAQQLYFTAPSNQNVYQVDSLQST
The assay is described as follows: MKP-3 phosphatase inhibitors, primary screen, biochemical, rat enzyme, in vitro (AID 425).

The target of assay [13] is T4, Dual specificity protein phosphatase 3. Kind of assay: VHR phosphatase inhibition, dose response, selectivity assay for STEP inhibitor project, biochemical (AID 602374). It counts as functional. The settings on record: read-out: IC50_Mean.
For assay [14], the target named is T7, Low molecular weight phosphotyrosine protein phosphatase (Homo sapiens, UniProt P24666).
T7 sequence (P24666 whole entry): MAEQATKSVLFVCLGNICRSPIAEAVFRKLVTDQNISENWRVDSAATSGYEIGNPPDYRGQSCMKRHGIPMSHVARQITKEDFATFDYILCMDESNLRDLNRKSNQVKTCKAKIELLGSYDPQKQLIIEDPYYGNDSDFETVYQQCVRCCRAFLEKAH
It counts as functional. The conditions noted are these: read-out: IC50_Mean.

The target of assay [15] is T8, Carboxy-terminal domain RNA polymerase II polypeptide A small phosphatase 1 (Homo sapiens, UniProt Q9GZU7).
T8 sequence (Q9GZU7 whole entry): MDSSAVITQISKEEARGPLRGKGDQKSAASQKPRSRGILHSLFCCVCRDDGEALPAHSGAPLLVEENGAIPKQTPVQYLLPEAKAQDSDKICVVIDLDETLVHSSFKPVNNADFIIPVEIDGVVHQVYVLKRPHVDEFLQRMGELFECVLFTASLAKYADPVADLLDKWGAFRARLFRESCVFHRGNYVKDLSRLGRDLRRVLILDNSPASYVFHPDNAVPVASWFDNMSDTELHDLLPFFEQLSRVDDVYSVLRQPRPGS
The assay is described as follows: inhibitors of CTDSP1, concentration-response testing, biochemical assay, absorbance-based, actives from ultra-high-throughput screening (AID 540297). The class given is functional.

Assay [16] addresses T7, Low molecular weight phosphotyrosine protein phosphatase. It counts as functional. The settings on record: read-out: IC50_Mean. This is another data set of the same source.
Assay [17] addresses T9, Tyrosine-protein phosphatase non-receptor type 5 (Homo sapiens, UniProt P54829).
T9 sequence (P54829 whole entry): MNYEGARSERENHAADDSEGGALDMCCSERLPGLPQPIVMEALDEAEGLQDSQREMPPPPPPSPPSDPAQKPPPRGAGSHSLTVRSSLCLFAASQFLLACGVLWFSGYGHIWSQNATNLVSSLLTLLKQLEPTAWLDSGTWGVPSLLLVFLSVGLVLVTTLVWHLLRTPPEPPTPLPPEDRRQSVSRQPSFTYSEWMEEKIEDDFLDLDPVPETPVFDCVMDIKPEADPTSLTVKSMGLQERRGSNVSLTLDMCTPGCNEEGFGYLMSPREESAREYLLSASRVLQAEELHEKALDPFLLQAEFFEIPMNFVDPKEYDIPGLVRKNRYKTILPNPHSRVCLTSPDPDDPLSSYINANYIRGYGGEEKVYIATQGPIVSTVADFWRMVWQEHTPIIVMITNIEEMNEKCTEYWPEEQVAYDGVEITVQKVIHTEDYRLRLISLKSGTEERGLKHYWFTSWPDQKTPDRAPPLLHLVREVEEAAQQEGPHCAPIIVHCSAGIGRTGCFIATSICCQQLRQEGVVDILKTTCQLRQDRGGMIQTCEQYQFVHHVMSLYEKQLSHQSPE
Kind of assay: STEP phosphatase inhibitors, confirmation, biochemical, fluorescence intensity, uHTS hits (AID 602372). The class given is functional. The settings on record: read-out: IC50_Mean.

Assay [18] has as its target T4, Dual specificity protein phosphatase 3. The assay is described as follows: VHR1 phosphatase inhibitors, biochemical (AID 1878).

T4 sequence (P51452 whole entry): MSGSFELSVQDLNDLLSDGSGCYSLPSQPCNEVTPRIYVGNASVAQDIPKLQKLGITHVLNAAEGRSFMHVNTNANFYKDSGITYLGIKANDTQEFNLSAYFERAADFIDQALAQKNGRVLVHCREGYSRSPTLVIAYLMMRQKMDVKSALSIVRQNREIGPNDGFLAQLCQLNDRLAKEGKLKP

On to `CCc1ccc(NC2Nc3cc(C)nn3S2)cc1` (stereo not given), for which the IC50 in assay [1] was > 50 µM (inactive); on Phosphomannomutase 2, > 100 µM (inactive); in assay [2], 8.43 µM (active).
In the case of `COc1ccc(CCNC(=O)CSc2ccc(-c3ccco3)nn2)cc1`, the IC50 in assay [3] was 70.3 µM (active); in assay [5] it was > 100 µM (inactive). In [4], the concentration giving a half-maximal response (EC50) is given as > 195 µM (not active).
As for `CCOc1cc(/C=N/NC2=NC(=O)C(CC(=O)O)S2)ccc1OCc1ccc(Cl)cc1Cl` (stereo not given), the IC50 in assay [6] was 7.26 µM (active); in assay [7], 8.44 µM (active); in [8], 2.2 µM (active); in the assay “cells”, 34.6 µM (active); in assay [9], 13.6 µM (active); in assay [11], 22.9 µM (inactive). Further, the IC50 in [12] was 25.6 µM (active); in [13], 2.42 µM (active); in assay [14], 12.1 µM (active); in assay [15], 2.32 µM (active); in assay [16], 8.68 µM (active); in assay [17], 4.09 µM (active). In addition, the IC50 in assay [18] was 5.27 µM (active). Besides, the CC50 in assay [10] was 20.8 µM (active).

Values taken from ChEMBL document CHEMBL1201862, “PubChem BioAssay data set” (2004).
